Tested on: EPCR
Assay: EPCR surface expression on cultured CD34+ cells by flow cytometry
Method: Fresh or cultured CB cells were labelled or sorted for different HSPC phenotypes using the following antibodies. […] Cells were analyzed on a BD Canto flow cytometer, and cell sorting (under low pressure conditions) was conducted on a BD Aria II cell sorter.

Compound	enrichment / expansion of EPCR+ population of cells (CD34+ cells (FIG. 17))	increase in proportion of EPCR+ cells / EPCR expression (CB, mPB or BM CD34+ cells, 7 days, UM171 38 nM, SR1 1000 nM (FIG. 2))
Nc1cccc2c1CN(C1CCC(=O)NC1=O)C2=O (centres unmarked) [lenalidomide]	enriches	–
CC(C)n1cnc2c(NCCc3ccc(O)cc3)nc(-c3csc4ccccc34)nc21 [SR1]	–	small increase

From US11725187B2, “Selection of human hematopoetic stem cells using EPCR” (UNIVERSITE DE MONTREAL, priority 2016, dated 2023)
